Source: ChEMBL document CHEMBL1201862, “PubChem BioAssay data set” (2004)
The source made the active and inactive calls.

What was measured:
[1] = target: Voltage-dependent T-type calcium channel subunit alpha-1H (Homo sapiens, UniProt O95180); type: functional;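 further: channel activity triggered by adding a high calcium stimulation buffer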
X-box-binding protein 1 = X-box-binding protein 1 (Homo sapiens, UniProt P17861); type: functional, Cricetulus griseus;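 further: confirmatory dose-response counter-screen serving a CHOP assay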
Sequence of X-box-binding protein 1 (P17861 whole entry): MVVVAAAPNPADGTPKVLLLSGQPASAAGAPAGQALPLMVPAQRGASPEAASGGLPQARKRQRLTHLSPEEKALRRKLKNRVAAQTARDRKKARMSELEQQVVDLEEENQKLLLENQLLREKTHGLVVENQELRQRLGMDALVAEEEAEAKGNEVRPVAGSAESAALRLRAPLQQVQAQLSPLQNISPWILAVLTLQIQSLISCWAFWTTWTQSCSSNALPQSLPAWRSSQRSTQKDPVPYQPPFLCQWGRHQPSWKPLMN

cells [2] = type: functional, cell-based
cells [3] = type: functional, cell-based; remark: listed apart in the source
[4] = A Cell Based Secondary Assay To Explore Cytotoxicity of Compounds that Sensitize Mycobacterium Tuberculosis to Beta-Lactam Antibiotics.; type: functional
Bcl-2-like protein 10 = Bcl-2-like protein 10 (Homo sapiens, UniProt Q9HD36); test: displacers of TR3 peptide from Bcl-B, primary screen, selectivity assay for Bfl-1 inhibitor project, biochemical, fluorescence polarization, FITC-TR3 peptide (AID 748);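 further: fluorescence polarization from a fluorescein-labelled TR3 peptide binding purified Bcl-B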
Sequence of Bcl-2-like protein 10 (Q9HD36 whole entry): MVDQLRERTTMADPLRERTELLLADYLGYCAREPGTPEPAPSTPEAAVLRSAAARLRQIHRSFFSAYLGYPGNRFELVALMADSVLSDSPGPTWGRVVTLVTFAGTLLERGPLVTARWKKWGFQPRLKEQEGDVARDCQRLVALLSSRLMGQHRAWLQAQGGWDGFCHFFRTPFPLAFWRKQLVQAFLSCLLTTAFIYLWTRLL

HeLa [5] = test: HeLa cell cytotoxicity, dose response, cytotoxicity control, 24 h, cherry-picked samples (AID 504726); type: functional, cell-based; conditions: Homo sapiens;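 further: potency for cytotoxicity as loss of luminescence signal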
[6] = HEp-2 cell cytotoxicity, dose response, cytotoxicity control for RSV inhibitor project, HTS (AID 2410); type: functional; conditions: human respiratory syncytial virus
[7] = cytotoxicity toward NIH3T3 fibroblasts, dose response, counter-screen, cell-based, ATP luminescence, mouse fibroblasts (AID 2010); type: functional;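 further: cells exposed to compound for about 90 hours before reading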
[8] = target: T1, RNA-binding protein pos-1 (Caenorhabditis elegans, UniProt G5EF15); test: inhibitors of POS-1/mex-3 RNA binding, dose response, biochemical, fluorescence polarization (AID 1964);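 further: purified POS-1 fused to maltose binding protein made in E. coli; potency of compounds blocking POS-1 binding to fluorescent RNA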
T1 sequence (G5EF15 whole entry): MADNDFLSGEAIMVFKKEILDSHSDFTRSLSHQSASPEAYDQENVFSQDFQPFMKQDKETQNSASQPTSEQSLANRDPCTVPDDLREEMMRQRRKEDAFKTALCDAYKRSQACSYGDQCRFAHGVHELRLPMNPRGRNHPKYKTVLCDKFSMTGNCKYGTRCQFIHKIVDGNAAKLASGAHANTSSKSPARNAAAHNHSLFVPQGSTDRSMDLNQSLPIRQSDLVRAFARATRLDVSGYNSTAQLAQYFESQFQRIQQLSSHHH

[9] = inhibitors of intracellular T. cruzi replication, confirmation, NIH3T3 host cells, beta-gal luminescence (AID 2044); type: functional, cell-based;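 further: intracellular parasites grown in NIH/3T3 mouse fibroblasts as host cells; luminescent beta-galactosidase reporter signal from transgenic T. cruzi replicating inside host cells; inhibitors lower the luminescence signal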
HeLa [10] = test: HeLa cell cytotoxicity, dose response, cytotoxicity control for MITF activator project, CellTiter-Glo luminescence, cherry-pick samples (AID 540259); type: functional, cell-based; conditions: Homo sapiens
[11] = target: T2, Zinc finger protein mex-5 (Caenorhabditis elegans, UniProt Q9XUB2); test: MEX-5/TCR-2 RNA interaction inhibitors, dose response, biochemical, C. elegans, fluorescence polarization (AID 1960)
T2 sequence (Q9XUB2 whole entry): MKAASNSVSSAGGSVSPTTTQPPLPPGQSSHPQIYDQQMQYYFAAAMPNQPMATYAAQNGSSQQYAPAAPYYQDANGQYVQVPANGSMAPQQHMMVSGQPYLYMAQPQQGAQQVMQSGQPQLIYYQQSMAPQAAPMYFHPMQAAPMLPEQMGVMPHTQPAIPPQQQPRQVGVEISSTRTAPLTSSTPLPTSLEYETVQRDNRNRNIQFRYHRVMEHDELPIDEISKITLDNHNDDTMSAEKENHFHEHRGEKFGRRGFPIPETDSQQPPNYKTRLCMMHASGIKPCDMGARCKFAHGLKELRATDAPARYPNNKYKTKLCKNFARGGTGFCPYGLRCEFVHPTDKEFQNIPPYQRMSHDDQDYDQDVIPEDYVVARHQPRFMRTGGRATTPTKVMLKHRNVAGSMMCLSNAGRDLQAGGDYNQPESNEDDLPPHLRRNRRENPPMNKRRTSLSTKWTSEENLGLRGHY

Vero [12] = test: cells; type: functional; conditions: Chlorocebus sabaeus
Vero [13] = test: cells; type: functional, cell-based; conditions: Chlorocebus sabaeus
cells [14] = test: cells
[15] = target: Polyadenylate-binding protein 1 (Homo sapiens, UniProt P11940); test: PABP poly(A) RNA binding inhibitors, primary screen, biochemical, fluorescence polarization, uHTS (AID 2014)
[16] = target: Eukaryotic translation initiation factor 4H (Homo sapiens, UniProt Q15056); test: human eIF4H binding inhibitors, primary screen, translation initiation inhibitor project, biochemical, uHTS, fluorescence polarization (AID 2012)
[17] = target: DNA dC->dU-editing enzyme APOBEC-3G (Homo sapiens, UniProt Q9HC16); type: functional;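 further: Dose-response counterscreen measuring inhibition of APOBEC3G DNA deaminase activity, run while confirming APOBEC3A inhibitors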
Sequence of DNA dC->dU-editing enzyme APOBEC-3G (Q9HC16 whole entry): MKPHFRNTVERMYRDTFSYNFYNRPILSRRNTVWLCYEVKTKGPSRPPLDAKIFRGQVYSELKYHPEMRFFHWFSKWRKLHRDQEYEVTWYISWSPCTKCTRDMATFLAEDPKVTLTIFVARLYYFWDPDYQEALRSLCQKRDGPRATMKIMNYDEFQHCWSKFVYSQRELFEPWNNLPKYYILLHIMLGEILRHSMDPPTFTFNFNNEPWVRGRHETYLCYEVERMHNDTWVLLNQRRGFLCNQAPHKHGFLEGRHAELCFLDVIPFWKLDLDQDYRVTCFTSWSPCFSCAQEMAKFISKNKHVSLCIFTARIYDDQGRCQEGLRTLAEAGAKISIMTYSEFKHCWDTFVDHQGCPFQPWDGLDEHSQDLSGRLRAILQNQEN

[18] = target: DNA dC->dU-editing enzyme APOBEC-3A (Homo sapiens, UniProt P31941); test: Dose Response confirmation of small molecule APOBEC3A DNA Deaminase Inhibitors via a fluorescence-based single-stranded DNA deaminase assay. [Related pubchem assays (depositor defined):AID493011, AID493024]; type: functional
Sequence of DNA dC->dU-editing enzyme APOBEC-3A (P31941 whole entry): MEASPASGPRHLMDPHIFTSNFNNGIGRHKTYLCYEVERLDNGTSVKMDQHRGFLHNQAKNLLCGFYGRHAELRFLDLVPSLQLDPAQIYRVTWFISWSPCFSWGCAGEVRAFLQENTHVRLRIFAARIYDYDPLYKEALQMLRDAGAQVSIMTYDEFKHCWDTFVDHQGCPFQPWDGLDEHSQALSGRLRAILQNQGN

[19] = target: Cyclin-dependent kinase 5/CDK5 activator 1 (Homo sapiens, UniProt Q00535); test: CDK5/p35 kinase inhibitors, dose response, biochemical, cherry-picked samples, set 2 (AID 504545)
Sequence of Cyclin-dependent kinase 5/CDK5 activator 1 (Q00535 whole entry): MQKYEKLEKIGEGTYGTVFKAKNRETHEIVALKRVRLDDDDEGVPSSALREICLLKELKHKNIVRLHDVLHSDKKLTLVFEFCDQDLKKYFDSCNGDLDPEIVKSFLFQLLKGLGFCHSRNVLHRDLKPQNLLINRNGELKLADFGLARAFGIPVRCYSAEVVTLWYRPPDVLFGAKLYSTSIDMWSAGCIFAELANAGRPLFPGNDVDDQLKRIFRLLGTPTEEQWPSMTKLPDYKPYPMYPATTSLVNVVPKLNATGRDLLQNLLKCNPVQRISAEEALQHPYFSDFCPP
Sequence of Cyclin-dependent kinase 5/CDK5 activator 1 (Q15078 whole entry, further chain): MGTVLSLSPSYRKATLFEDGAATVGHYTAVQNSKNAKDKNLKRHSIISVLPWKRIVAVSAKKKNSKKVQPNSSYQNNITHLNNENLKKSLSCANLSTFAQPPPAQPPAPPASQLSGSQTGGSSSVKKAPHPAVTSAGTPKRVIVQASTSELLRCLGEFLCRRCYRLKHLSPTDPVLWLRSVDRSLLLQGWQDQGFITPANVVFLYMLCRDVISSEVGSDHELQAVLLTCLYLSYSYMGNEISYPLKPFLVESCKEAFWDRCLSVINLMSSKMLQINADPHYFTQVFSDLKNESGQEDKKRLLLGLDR

[20] = target: Luciferin 4-monooxygenase (Photinus pyralis, UniProt P08659); test: firefly luciferase enzyme inhibitors, dose response, biochemical, luminescence (AID 1891)
Sequence of Luciferin 4-monooxygenase (P08659 whole entry): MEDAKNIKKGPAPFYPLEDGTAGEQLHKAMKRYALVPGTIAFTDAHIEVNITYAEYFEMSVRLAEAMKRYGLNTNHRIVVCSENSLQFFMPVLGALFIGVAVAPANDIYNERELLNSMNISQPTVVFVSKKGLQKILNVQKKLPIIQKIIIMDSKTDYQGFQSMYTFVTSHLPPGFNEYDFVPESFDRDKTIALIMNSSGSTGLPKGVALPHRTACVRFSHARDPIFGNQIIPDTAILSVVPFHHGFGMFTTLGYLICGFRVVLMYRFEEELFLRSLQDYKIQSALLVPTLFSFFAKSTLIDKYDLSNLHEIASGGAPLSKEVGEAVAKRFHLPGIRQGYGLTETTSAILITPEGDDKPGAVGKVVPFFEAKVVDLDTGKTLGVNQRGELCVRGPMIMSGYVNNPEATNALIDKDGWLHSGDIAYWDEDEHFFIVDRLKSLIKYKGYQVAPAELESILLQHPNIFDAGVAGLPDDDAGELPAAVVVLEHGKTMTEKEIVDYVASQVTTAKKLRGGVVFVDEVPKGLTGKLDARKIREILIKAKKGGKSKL

Cytochrome P450 2D6 = Cytochrome P450 2D6 (Homo sapiens, UniProt P10635);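 further: CYP2D6 member of a cytochrome P450 panel assay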
Sequence of Cytochrome P450 2D6 (P10635 whole entry): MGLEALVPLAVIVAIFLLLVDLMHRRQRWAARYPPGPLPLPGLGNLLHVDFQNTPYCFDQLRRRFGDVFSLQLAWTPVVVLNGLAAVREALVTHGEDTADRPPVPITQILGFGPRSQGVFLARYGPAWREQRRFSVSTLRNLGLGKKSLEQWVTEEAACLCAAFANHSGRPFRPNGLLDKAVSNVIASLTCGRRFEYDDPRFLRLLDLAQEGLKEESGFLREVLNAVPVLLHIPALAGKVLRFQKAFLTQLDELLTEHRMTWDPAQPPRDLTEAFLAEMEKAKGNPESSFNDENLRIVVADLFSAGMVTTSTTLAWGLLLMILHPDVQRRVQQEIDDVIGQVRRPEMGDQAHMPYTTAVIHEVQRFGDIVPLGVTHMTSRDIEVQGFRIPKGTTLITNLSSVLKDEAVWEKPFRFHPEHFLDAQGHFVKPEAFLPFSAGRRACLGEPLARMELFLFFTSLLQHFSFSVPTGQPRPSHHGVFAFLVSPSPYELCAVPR

Cytochrome P450 3A4 = Cytochrome P450 3A4 (Homo sapiens, UniProt P08684);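 further: CYP3A4 tested as one member of a cytochrome P450 panel screen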
Sequence of Cytochrome P450 3A4 (P08684 whole entry): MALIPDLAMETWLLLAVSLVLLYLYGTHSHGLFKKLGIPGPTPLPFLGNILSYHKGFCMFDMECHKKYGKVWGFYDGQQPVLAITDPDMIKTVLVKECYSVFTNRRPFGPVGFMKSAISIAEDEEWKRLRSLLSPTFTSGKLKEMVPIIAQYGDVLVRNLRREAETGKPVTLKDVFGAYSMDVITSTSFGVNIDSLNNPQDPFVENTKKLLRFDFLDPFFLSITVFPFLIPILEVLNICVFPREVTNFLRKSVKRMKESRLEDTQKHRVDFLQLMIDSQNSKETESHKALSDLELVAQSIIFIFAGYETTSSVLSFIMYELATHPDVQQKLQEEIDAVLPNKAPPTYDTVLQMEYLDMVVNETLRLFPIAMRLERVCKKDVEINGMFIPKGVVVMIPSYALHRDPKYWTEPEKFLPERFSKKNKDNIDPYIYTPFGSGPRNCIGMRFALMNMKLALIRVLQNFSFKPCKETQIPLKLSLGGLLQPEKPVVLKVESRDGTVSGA

HeLa [21] = test: Cytotoxicity counterscreen assay for transcriptional activators of heat shock protein 70 (Hsp70). [Related pubchem assays: 1203, 1252 ]; type: functional; conditions: Homo sapiens
Cytochrome P450 2C19 = Cytochrome P450 2C19 (Homo sapiens, UniProt P33261); test: Cytochrome panel assay with activity outcomes. Panel member name: p450-cyp2c19 Compounds with AC50 equal or less than 10 uM are considered active; type: functional; conditions: read-out: AC50
Hexokinase HKDC1 = target: T3, Hexokinase HKDC1 (Homo sapiens, UniProt Q2TB90); test: HKDC1 hexokinase inhibitors, dose response, biochemical, W721R variant (AID 504729); type: functional
T3 sequence (Q2TB90 whole entry): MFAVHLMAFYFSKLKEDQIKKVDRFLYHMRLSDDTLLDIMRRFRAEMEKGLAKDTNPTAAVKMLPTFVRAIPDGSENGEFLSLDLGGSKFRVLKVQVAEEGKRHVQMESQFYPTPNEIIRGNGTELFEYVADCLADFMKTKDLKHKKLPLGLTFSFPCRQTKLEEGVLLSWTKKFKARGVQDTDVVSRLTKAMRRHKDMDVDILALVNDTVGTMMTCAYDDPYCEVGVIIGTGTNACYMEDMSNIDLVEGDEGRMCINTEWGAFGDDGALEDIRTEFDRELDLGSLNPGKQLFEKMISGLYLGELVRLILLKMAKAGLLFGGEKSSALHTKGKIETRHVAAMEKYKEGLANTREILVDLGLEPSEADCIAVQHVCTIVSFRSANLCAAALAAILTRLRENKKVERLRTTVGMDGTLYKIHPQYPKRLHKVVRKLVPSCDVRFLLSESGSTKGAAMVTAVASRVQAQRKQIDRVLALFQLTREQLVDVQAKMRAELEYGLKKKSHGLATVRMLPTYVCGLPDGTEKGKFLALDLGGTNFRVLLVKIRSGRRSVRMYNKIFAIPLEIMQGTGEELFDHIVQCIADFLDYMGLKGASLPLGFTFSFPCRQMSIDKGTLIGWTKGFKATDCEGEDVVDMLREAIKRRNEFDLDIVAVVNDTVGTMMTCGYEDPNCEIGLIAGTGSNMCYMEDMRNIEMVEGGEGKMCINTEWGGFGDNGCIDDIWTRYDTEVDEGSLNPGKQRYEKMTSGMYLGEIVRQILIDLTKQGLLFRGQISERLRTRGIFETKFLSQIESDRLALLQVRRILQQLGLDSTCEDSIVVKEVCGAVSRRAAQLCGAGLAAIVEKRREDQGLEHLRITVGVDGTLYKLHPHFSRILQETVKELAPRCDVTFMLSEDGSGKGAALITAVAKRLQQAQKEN

[22] = target: Induced myeloid leukemia cell differentiation protein Mcl-1 (Homo sapiens, UniProt Q07820); type: functional
Sequence of Induced myeloid leukemia cell differentiation protein Mcl-1 (Q07820 whole entry): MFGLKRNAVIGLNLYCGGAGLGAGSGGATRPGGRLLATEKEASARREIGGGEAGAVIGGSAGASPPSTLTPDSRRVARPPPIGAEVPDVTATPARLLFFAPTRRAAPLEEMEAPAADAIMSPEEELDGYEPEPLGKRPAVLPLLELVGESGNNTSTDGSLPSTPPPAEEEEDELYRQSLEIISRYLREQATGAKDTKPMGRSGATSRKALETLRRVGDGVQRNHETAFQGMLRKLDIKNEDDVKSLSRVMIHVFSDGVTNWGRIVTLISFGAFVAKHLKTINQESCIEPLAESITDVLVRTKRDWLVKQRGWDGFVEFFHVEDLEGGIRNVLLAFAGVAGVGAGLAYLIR

[23] = target: FAD-linked sulfhydryl oxidase ALR (Homo sapiens, UniProt P55789); test: inhibitors of human ALR sulfhydryl oxidase, dose response, biochemical, H2O2 detection, luminescence, cherry-pick (AID 493248)
Sequence of FAD-linked sulfhydryl oxidase ALR (P55789 whole entry): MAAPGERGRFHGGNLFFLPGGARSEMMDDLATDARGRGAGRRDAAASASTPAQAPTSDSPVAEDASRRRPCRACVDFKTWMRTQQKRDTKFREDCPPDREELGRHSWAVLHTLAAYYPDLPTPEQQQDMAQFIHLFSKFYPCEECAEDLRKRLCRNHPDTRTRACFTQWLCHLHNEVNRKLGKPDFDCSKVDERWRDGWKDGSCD

Genome polyprotein = Genome polyprotein (dengue virus type 2, UniProt P29990); test: Dengue-2 NS5 methyltransferase inhibitors, primary screen, biochemical, confirmation dose response (AID 588689); type: functional
[24] = HIV-1 Env-mediated cell fusion inhibitors, dose response, CCR5-tropic Env (AID 2279); type: functional
[25] = Luminescence Cell-Based Dose Confirmation HTS to Identify Inhibitors of Platelet Dense Granule Release. [Related pubchem assays: 1663 (Primary HTS), 1678 (Summary of Project)]; type: functional
[26] = M. tuberculosis H37Rv growth inhibitors, H37Rv strain (AID 1626); type: functional
[27] = target: T4, Rac GTPase-activating protein 1 (Homo sapiens, UniProt Q9H0H5); test: MgcRacGAP GTPase-activating activity inhibitors, confirmation, biochemical, ADP Hunter fluorescence, primary and confirmatory (AID 624330); type: functional
T4 sequence (Q9H0H5 whole entry): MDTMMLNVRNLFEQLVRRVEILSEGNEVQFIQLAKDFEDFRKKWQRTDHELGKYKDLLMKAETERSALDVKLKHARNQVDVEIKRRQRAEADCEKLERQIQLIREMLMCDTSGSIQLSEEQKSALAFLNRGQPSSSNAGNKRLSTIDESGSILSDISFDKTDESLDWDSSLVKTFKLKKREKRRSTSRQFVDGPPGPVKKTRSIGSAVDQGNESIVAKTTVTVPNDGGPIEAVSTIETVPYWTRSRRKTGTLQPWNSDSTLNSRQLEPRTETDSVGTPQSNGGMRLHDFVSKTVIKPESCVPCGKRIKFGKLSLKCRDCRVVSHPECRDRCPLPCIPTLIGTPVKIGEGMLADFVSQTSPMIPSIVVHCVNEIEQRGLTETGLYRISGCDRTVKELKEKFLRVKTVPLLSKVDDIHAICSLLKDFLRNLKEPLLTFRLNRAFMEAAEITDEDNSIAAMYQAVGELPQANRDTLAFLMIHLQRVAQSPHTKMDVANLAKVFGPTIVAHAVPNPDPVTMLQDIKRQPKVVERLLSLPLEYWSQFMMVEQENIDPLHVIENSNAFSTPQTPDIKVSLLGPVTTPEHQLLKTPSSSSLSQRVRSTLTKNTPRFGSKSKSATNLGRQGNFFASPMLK

[28] = target: G2/mitotic-specific cyclin-B1 (Homo sapiens, UniProt P14635); test: G2/M cell cycle arrest in HeLa, late-stage follow-up, mechanism study for Wee1 degradation inhibitor project, FACS, panel member Cyclin B Degradation (AID 2088)
Sequence of G2/mitotic-specific cyclin-B1 (P14635 whole entry): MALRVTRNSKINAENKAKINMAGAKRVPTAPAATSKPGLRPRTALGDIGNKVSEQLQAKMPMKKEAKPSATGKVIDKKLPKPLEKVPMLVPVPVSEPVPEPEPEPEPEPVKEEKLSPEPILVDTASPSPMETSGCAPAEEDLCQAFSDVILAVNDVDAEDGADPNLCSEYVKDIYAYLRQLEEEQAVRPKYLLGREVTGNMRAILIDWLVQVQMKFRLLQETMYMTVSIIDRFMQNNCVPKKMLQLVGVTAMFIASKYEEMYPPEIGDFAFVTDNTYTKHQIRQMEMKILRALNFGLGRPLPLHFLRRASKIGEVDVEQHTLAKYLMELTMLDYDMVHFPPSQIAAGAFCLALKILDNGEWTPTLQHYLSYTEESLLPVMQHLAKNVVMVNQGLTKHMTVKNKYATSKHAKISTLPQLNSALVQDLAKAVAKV

Wee1-like protein kinase = Wee1-like protein kinase (Homo sapiens, UniProt P30291); test: G2/M cell cycle arrest in HeLa, late-stage follow-up, mechanism study for Wee1 degradation inhibitor project, FACS, panel member Wee1 Degradation (AID 2088)
Sequence of Wee1-like protein kinase (P30291 whole entry): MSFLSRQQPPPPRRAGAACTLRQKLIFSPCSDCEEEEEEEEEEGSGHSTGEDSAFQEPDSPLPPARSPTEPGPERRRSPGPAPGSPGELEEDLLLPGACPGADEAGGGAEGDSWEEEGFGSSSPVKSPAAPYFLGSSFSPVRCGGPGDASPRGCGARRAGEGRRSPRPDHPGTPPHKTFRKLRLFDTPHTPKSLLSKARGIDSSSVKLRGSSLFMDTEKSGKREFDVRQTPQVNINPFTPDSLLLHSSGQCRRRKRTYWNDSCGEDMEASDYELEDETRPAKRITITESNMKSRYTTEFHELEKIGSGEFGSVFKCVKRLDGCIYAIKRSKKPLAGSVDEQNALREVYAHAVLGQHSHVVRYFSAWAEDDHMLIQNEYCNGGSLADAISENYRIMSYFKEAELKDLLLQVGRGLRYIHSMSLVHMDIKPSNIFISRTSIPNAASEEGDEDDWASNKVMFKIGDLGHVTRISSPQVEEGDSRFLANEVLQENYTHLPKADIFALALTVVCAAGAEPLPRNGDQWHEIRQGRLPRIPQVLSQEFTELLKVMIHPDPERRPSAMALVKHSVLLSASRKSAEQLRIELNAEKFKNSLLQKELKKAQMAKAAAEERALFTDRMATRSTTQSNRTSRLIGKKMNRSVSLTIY

C[C@H](NC(=O)c1ccccc1Cl)C(=O)OC(C(=O)Nc1cc(C(F)(F)F)ccc1Cl)c1ccccc1 (stereo partly drawn)
EC50 [1]: 4.07 µM (active)

CCCCCCSc1nsc(NC(=O)CCC)n1
Absolute IC50 (XBP1) (X-box-binding protein 1): 10 µM

CCC(=O)NC(=S)Nc1ccc(NC(=O)c2cccc([N+](=O)[O-])c2C)cc1
EC50 (cells [2]): > 350 µM (not active) | EC50 (cells [3]): > 350 µM (not active) | CC50 [4]: > 40 µM (active)

Cn1c(=O)n(C)c2cc(S(=O)(=O)Nc3ccccc3O)ccc21
IC50 (Bcl-2-like protein 10): > 100 µM (inactive)

O=C(c1cnn2c(-c3ccccc3)cc(-c3ccccc3)nc12)N1CCN(Cc2ccccc2)CC1
AC50 (HeLa [5]): 62.6 µM (active) | CC50 [6]: 15.5 µM (active)

CN(CC(=O)Nc1c(Cl)cccc1Cl)C(=O)CCCN1C(=O)c2ccccc2C1=O
IC50 (Bcl-2-like protein 10): > 100 µM (inactive)

CN1CCc2c(sc(NC(=O)c3ccc4ccccc4c3)c2C(N)=O)C1
AC50 (HeLa [5]): 35.3 µM (active) | EC50 [7]: 9.24 µM (active) | EC50 [8]: > 300 µM (not active) | EC50 [9]: 3.25 µM (active) | AC50 (HeLa [10]): 24.5 µM (active) | EC50 [11]: > 300 µM (inconclusive)

COCCNC(=O)c1cc(-c2ccc(-c3ccccc3)cc2)nc2ccccc12
CC50 [6]: 15.2 µM (active) | CC50 (Vero [12]): 19.2 µM (active) | IC50 (Vero [13]): 7.44 µM (active) | IC50 (cells [14]): 4.81 µM (active)

C[N+]12CCCCC1[C@@H](CO)CCC2 (stereo partly drawn)
IC50 [15]: 5.51 µM (active) | IC50 [16]: > 100 µM (inactive) | IC50 [17]: 4.19 µM (active) | IC50 [18]: 2.79 µM (active)

CCC(C)NC(=O)c1cc2cc3ccc(OC)cc3nc2s1 (stereo not drawn)
CC50 [6]: 44.8 µM (active) | IC50 (cells [14]): 10.8 µM (active)

COc1cccc(C(=O)ON=C(N)c2ccccn2)c1
AC50 [19]: 12.9 µM (active) | EC50 [20]: 2.07 µM (active)

CC1=NOC(=O)/C1=C\c1ccc(-c2ccc(Cl)cc2Cl)o1
AC50 (Cytochrome P450 2D6): 14.1 µM (inconclusive) | AC50 (Cytochrome P450 3A4): 17.8 µM (inconclusive) | CC50 (HeLa [21]): > 3.67 µM (not active) | AC50 (Cytochrome P450 2C19): 7.94 µM (inconclusive) | IC50 (Hexokinase HKDC1): 20.6 µM (inactive) | IC50 [22]: 1.7 µM (active) | CC50 (Vero [12]): > 25 µM (active) | IC50 (Vero [13]): > 25 µM (active)

CC(C)n1cnc2c(Nc3ccc(C(=O)O)cc3)nc(Cl)nc21
AC50 [19]: 22.2 µM (active)

COC(=O)c1sc(-c2ccc(C(C)(C)C)cc2)cc1NC(=O)c1ccccc1C(=O)O
AC50 [23]: 0.087 µM (active) | IC50 (Genome polyprotein): 35.9 µM (active) | IC50 [24]: 49.9 µM (active)

COc1cc(OC)c2cc[nH]c2c1
EC50 [25]: > 112 µM (not active) | IC50 [26]: > 100 µM (active) | IC50 [27]: 108 µM (active) | EC50 [20]: > 112 µM (not active)

c1ccc(-c2cc3c(ccc4nonc43)[nH]2)cc1
EC50 [28]: > 49.7 µM (inactive) | EC50 (Wee1-like protein kinase): > 49.7 µM (inactive)

Cn1c(=O)cc(OCCCC(=O)Nc2cccc(Cl)c2)c2ccccc21
EC50 [28]: > 49.7 µM (inactive) | EC50 (Wee1-like protein kinase): > 49.7 µM (inactive)

CN(C)c1ccc(/C=N/NC(=O)c2cc(-c3ccc4c(c3)OCO4)[nH]n2)cc1
CC50 [4]: 30.2 µM (active)
